Data on 18 molecules can be found in PubChem BioAssay AID330 (DTP/NCI, 2004).

The assay has as its system P388 leukemia ip, CD2F1 mice, survival T/C. Description: NCI In Vivo Anticancer Drug Screen. Data for tumor model P388 Leukemia (intraperitoneal) in CD2F1 (CDF1) mice. The following applies: endpoint: median survival time, higher = longer survival. The essentials: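 Mice carrying the transplanted tumor received test compound or vehicle. Survival was recorded in each group, and the value is the treated-group measurement divided by that of the vehicle-treated control group.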

[1] abbreviates: dose: 50.0 mg/kg/injection, schedule: Q01DX009 (ip), vehicle: saline with Tween-80.
Setting [2] is: dose: 100.0 mg/kg/injection, schedule: Q01DX009 (ip), vehicle: saline with Tween-80.
Setting [3] is: dose: 200.0 mg/kg/injection, schedule: Q01DX009 (ip), vehicle: saline with Tween-80.
Where [4] appears, read: dose: 60.0 mg/kg/injection, schedule: Q01DX005 (ip), vehicle: saline with Tween-80.
Setting [5] is: dose: 120.0 mg/kg/injection, schedule: Q01DX005 (ip), vehicle: saline with Tween-80.
The mark [6] stands for this setting: dose: 240.0 mg/kg/injection, schedule: Q01DX005 (ip), vehicle: saline with Tween-80.
The mark [7] stands for this setting: dose: 50.0 mg/kg/injection, schedule: Q01DX009 (ip), vehicle: Klucel (hydroxypropylcellulose) (HPC).
Setting [8] is: dose: 50.0 mg/kg/injection, schedule: Q01DX005 (ip), vehicle: Klucel (hydroxypropylcellulose) (HPC).
The mark [9] stands for this setting: dose: 100.0 mg/kg/injection, schedule: Q01DX005 (ip), vehicle: Klucel (hydroxypropylcellulose) (HPC).
Where [10] appears, read: dose: 200.0 mg/kg/injection, schedule: Q01DX005 (ip), vehicle: Klucel (hydroxypropylcellulose) (HPC).

The structures appear in SMILES notation. Values joined by “and” are separate entries in the source; they are usually repeats but may differ in a detail not shown here. Identical values can stand only once. Toxic doses and inconclusive results are not listed.

In the case of `O=C(O)CCC12CCCCC1=NC1(CCCCC1)NC2=O` (configuration not stated), the T/C reads like this: (dose: 60.0 mg/kg/injection, schedule: Q01DX005 (ip), vehicle: Klucel (hydroxypropylcellulose) (HPC)) 104 % of control; (dose: 60.0 mg/kg/injection, schedule: Q02DX002 (ip), vehicle: Klucel (hydroxypropylcellulose) (HPC)) 102 % of control; (dose: 120.0 mg/kg/injection, schedule: Q01DX005 (ip), vehicle: Klucel (hydroxypropylcellulose) (HPC)) 100 % of control; (dose: 120.0 mg/kg/injection, schedule: Q02DX002 (ip), vehicle: Klucel (hydroxypropylcellulose) (HPC)) 97 % of control; (dose: 240.0 mg/kg/injection, schedule: Q01DX005 (ip), vehicle: Klucel (hydroxypropylcellulose) (HPC)) 100 % of control; (dose: 240.0 mg/kg/injection, schedule: Q02DX002 (ip), vehicle: Klucel (hydroxypropylcellulose) (HPC)) 103 % of control.

Turning to `COCn1ccnc1C(=O)c1ccccc1`, the T/C runs as follows: under setting [1], 100 % of control; under setting [2], 106 % of control; under setting [3], 101 % of control.

As to `CC1=NCCN=C(C)C1N=Nc1ccc(S(=O)(=O)Nc2ncccn2)cc1`, the T/C is 96 % of control (dose: 100.0 mg/kg/injection, schedule: Q04DX003 (ip), vehicle: saline with Tween-80); 93 % of control (dose: 200.0 mg/kg/injection, schedule: Q04DX003 (ip), vehicle: saline with Tween-80); 99 % of control (dose: 400.0 mg/kg/injection, schedule: Q04DX003 (ip), vehicle: saline with Tween-80).

For the molecule `O=C1CSC(c2ccc(F)cc2)N1CCN1C(=O)CSC1c1ccc(F)cc1` (configuration not stated), the T/C reads like this: under setting [4], 106 % of control; under setting [5], 100 % of control; under setting [6], 95 % of control.

In the case of `Cc1nc(NC(=O)C(C)(C)C)sc1[N+](=O)[O-]`, the T/C was 101 % of control under setting [1], 92 % of control under setting [2] and 94 % of control under setting [3].

In the case of `Cn1nnc(/C(N)=N/N=C/c2ccccc2)n1`, the T/C runs as follows: under setting [7], 100 % of control; (dose: 100.0 mg/kg/injection, schedule: Q01DX009 (ip), vehicle: Klucel (hydroxypropylcellulose) (HPC)) 102 % of control; (dose: 200.0 mg/kg/injection, schedule: Q01DX009 (ip), vehicle: Klucel (hydroxypropylcellulose) (HPC)) 94 % of control.

With `CS(=O)(=O)Nc1cc(C(O)CNC2CC2)ccc1O` (configuration not stated), the T/C by setting is: (dose: 0.37 mg/kg/injection, schedule: Q01DX001 (ip), vehicle: saline) 96 % of control; (dose: 0.75 mg/kg/injection, schedule: Q01DX001 (ip), vehicle: saline) 98 % of control; (dose: 1.5 mg/kg/injection, schedule: Q01DX001 (ip), vehicle: saline) 100 % of control and 95 % of control.

With `[Cl][Hg][CH]1CCC2OC1CC[CH]2[Hg][Cl]` (configuration not stated), the T/C (dose: 1.56 mg/kg/injection, schedule: Q01DX009 (ip), vehicle: saline with Tween-80) was 112 % of control; the T/C (dose: 3.12 mg/kg/injection, schedule: Q01DX009 (ip), vehicle: saline with Tween-80) is 105 % of control and 118 % of control; the T/C (dose: 6.25 mg/kg/injection, schedule: Q01DX009 (ip), vehicle: saline with Tween-80) was 121 % of control and 91 % of control; the T/C (dose: 12.5 mg/kg/injection, schedule: Q01DX009 (ip), vehicle: saline with Tween-80) is 94 % of control.

Turning to `COc1cc(C=Nc2ccc(C(=O)O)cc2)ccc1N(CCCl)CCCl`, the T/C is 155 % of control (dose: 37.5 mg/kg/injection, schedule: Q04DX003 (ip), vehicle: saline with Tween-80) and 90 % of control (dose: 50.0 mg/kg/injection, schedule: Q04DX003 (ip), vehicle: saline with Tween-80).

In the case of `c1ccc(-c2nnc(-c3ccccc3)c3c2nn2ccc4ccccc4c32)cc1`, the T/C (dose: 100.0 mg/kg/injection, schedule: Q01DX001 (ip), vehicle: saline with Tween-80) was 90 % of control; the T/C (dose: 200.0 mg/kg/injection, schedule: Q01DX001 (ip), vehicle: saline with Tween-80) is 89 % of control; the T/C (dose: 400.0 mg/kg/injection, schedule: Q01DX001 (ip), vehicle: saline with Tween-80) was 103 % of control.

For the molecule `CCCN(C)C12CN3CN(CN(C3)C1)C2`, the T/C runs as follows: (dose: 100.0 mg/kg/injection, schedule: Q04DX003 (ip), vehicle: saline) 106 % of control; (dose: 200.0 mg/kg/injection, schedule: Q04DX003 (ip), vehicle: saline) 95 % of control; (dose: 400.0 mg/kg/injection, schedule: Q04DX003 (ip), vehicle: saline) 100 % of control.

Regarding `CC(C)(C)NCc1cc(Nc2ccnc3cc(Cl)ccc23)cc(-c2ccc(Cl)cc2)c1O`, the T/C (dose: 15.0 mg/kg/injection, schedule: Q01DX005 (ip), vehicle: saline with Tween-80) is 100 % of control; the T/C (dose: 30.0 mg/kg/injection, schedule: Q01DX005 (ip), vehicle: saline with Tween-80) is 100 % of control; the T/C under setting [4] is 95 % of control and 98 % of control; the T/C under setting [5] is 105 % of control; the T/C under setting [6] is 97 % of control.

Take `CC(=O)O[B-]1(OC(C)=O)Oc2c3ccccc3c3c4c(ccc(c24)=[O+]1)O[B-](OC(C)=O)(OC(C)=O)[O+]=3`: the T/C is, setting by setting: (dose: 50.0 mg/kg/injection, schedule: Q01DX005 (ip), vehicle: Klucel + Tween-80) 94 % of control; (dose: 100.0 mg/kg/injection, schedule: Q01DX005 (ip), vehicle: Klucel + Tween-80) 89 % of control; (dose: 200.0 mg/kg/injection, schedule: Q01DX005 (ip), vehicle: Klucel + Tween-80) 93 % of control.

Take `COC1OC(CNC(=O)N(CCCl)N=O)C(O)C(O)C1O` (configuration not stated): the T/C is, setting by setting: (dose: 1.56 mg/kg/injection, schedule: Q01DX009 (ip), vehicle: saline) 182 % of control; (dose: 3.12 mg/kg/injection, schedule: Q01DX009 (ip), vehicle: saline) 204 % of control; (dose: 3.12 mg/kg/injection, schedule: Q04DX002 (ip), vehicle: saline) 157 % of control; (dose: 6.25 mg/kg/injection, schedule: Q01DX009 (ip), vehicle: saline) 248 % of control; (dose: 6.25 mg/kg/injection, schedule: Q04DX002 (ip), vehicle: saline) 212 % of control; (dose: 10.0 mg/kg/injection, schedule: Q04DX002 (ip), vehicle: saline) 278 % of control. Besides, the T/C is, setting by setting: (dose: 12.5 mg/kg/injection, schedule: Q01DX009 (ip), vehicle: saline) 263 % of control; (dose: 12.5 mg/kg/injection, schedule: Q04DX002 (ip), vehicle: saline) 277 % of control; (dose: 20.0 mg/kg/injection, schedule: Q04DX002 (ip), vehicle: saline) 288 % of control; (dose: 25.0 mg/kg/injection, schedule: Q04DX002 (ip), vehicle: saline) 222 % of control; (dose: 40.0 mg/kg/injection, schedule: Q04DX002 (ip), vehicle: saline) 86 % of control.

In the case of `O=c1c2ccccc2sc2c(CO)ccc(NCCCN3CCN(CCCNc4ccc(CO)c5sc6ccccc6c(=O)c45)CC3)c12`, the T/C by setting is: (dose: 0.67 mg/kg/injection, schedule: Q01DX005 (ip), vehicle: saline with Tween-80) 93 % of control; (dose: 1.25 mg/kg/injection, schedule: Q01DX005 (ip), vehicle: saline with Tween-80) 104 % of control; (dose: 2.5 mg/kg/injection, schedule: Q01DX005 (ip), vehicle: saline with Tween-80) 107 % of control; (dose: 5.0 mg/kg/injection, schedule: Q01DX005 (ip), vehicle: saline with Tween-80) 95 % of control; (dose: 10.0 mg/kg/injection, schedule: Q01DX005 (ip), vehicle: saline with Tween-80) 104 % of control; (dose: 20.0 mg/kg/injection, schedule: Q01DX005 (ip), vehicle: saline with Tween-80) 94 % of control. The T/C was 86 % of control and 95 % of control (dose: 40.0 mg/kg/injection, schedule: Q01DX005 (ip), vehicle: saline with Tween-80); 90 % of control (dose: 80.0 mg/kg/injection, schedule: Q01DX005 (ip), vehicle: saline with Tween-80).

For `Nc1ccc(C(=O)CCl)c(Cl)c1`, the T/C by setting is: (dose: 12.5 mg/kg/injection, schedule: Q01DX009 (ip), vehicle: Klucel (hydroxypropylcellulose) (HPC)) 107 % of control; (dose: 25.0 mg/kg/injection, schedule: Q01DX009 (ip), vehicle: Klucel (hydroxypropylcellulose) (HPC)) 110 % of control; under setting [7], 110 % of control and 116 % of control.

As for `Cc1nnsc1-c1nc2ccccc2[nH]1`, the T/C is, setting by setting: under setting [8], 95 % of control; under setting [9], 102 % of control; under setting [10], 104 % of control.

For the molecule `O=C1CC(N2CCCC2)=Nc2ccccc2N1`, the T/C by setting is: under setting [8], 113 % of control; under setting [9], 104 % of control; under setting [10], 103 % of control.
